This is an account of results in the METLIN SMRT retention time set (Domingo-Almenara et al. 2019).

This data set can be described thus: gradient 5% acetonitrile 3 min, to 50% in 2 min, to 85% in 15 min, held 3 min, 100 µL/min. Conditions: column: Zorbax Extend-C18 2.1 x 50 mm; eluents: water / acetonitrile, 0.1% formic acid. The method, boiled down:
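Data were gathered over 3 months by HPLC coupled to a quadrupole time-of-flight mass spectrometer, operated in positive and negative ionization mode. Mixtures of ~100 pure standards ran on a Zorbax Extend-C18 column (2.1 × 50 mm, 1.8 μm) at 100 μL/min, with water and acetonitrile each containing 0.1% formic acid and dead and dwell volumes of 40 μL and 900 μL. Retention time was read from adduct peaks picked by computer and checked manually.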
`O=C(NC1CCCCC1)C1CCN(C(=O)c2ncn3c2COC(c2ccc(Cl)cc2)C3)CC1` (centres undefined): the RP-LC retention time worked out at 844 s.

`COc1ccccc1CNC(=O)C1CCN(S(C)(=O)=O)c2ccccc2O1` (centres undefined): the RP-LC retention time turned out to be 807 s.

`CSc1nnc(NC(=O)CN(C)S(C)(=O)=O)s1` showed an RP-LC retention time of 603 s.

`Cc1ccc(-c2ncccc2CNC(=O)c2ccc3c(c2)OCO3)cc1` displayed an RP-LC retention time of 646 s. Next, `Cc1ccc(NS(=O)(=O)c2cc(-c3nc(C(C)C)cs3)cs2)c(Br)c1`: 1220 s; `Cc1ccc(-n2nc(C)c3c(=O)n(CC(=O)N4CCN(c5cc(Cl)ccc5C)CC4)ccc32)cc1`: 1100 s. The compound `CCN1CCN(S(=O)(=O)c2ccc(/C=C\c3onc(C)c3NC(=O)C3CC3)cc2)CC1` registered an RP-LC retention time of 639 s. On to `Cc1cccc(-c2nnc(Cc3nc(-c4cccs4)no3)o2)c1`, for which the RP-LC retention time was determined as 979 s.

On to `COC(=O)c1ccc2c(=O)n(Cc3ccc(F)cc3)c(N3CCCC3)nc2c1`, for which the RP-LC retention time was 1060 s. With `CCCNc1cc(-n2cccn2)ncn1`, the RP-LC retention time is 668 s. `Cc1ccccc1S(=O)(=O)N1CC[C@@H]2CN(c3cnccn3)[C@@H]2C1` had an RP-LC retention time of 738 s. For the compound `CCN1C(=O)Cc2cc(C(=O)NC3CCCCC3)ccc21`, the RP-LC retention time was 736 s.

Turning to `O=C(NCCN1CCCC1)C1CCN(c2cnn(CC3CC3)c(=O)c2)C1` (centres undefined), the RP-LC retention time was 577 s. For `COC(=O)c1ccc(-c2nc3cnccn3c2Nc2ccc(C)cc2Br)cc1` the value was 1060 s; for `Cc1cc(C)n(-c2ccnc(N3CCC(C(=O)NCc4ccco4)CC3)n2)n1`, 742 s. As for `Cc1cccc(CNC(=O)C2CCN(S(=O)(=O)c3ccc4c(c3)sc(=O)n4C(C)C)CC2)c1`, the RP-LC retention time worked out at 985 s. Take `Cc1ccc(C(C)NC(=O)C2CCCN(c3cnc4nccnc4c3)C2)c(C)c1` (centres undefined): the RP-LC retention time was found to be 809 s.

As to `CCC(C(=O)Nc1ccc2c(c1)OCCO2)n1cnc2nc3c(cc2c1=O)CCCC3` (centres undefined), the RP-LC retention time came to 763 s.

For `Cc1ccc(CN2CCNCC2)cc1NC(=O)CNc1ccc(F)c(F)c1`, the RP-LC retention time came to 639 s. Next, `CCCn1c(=O)c(C)nc2cc(-c3noc(COc4ccc(F)cc4)n3)ccc21`: 1060 s; `COCCCNC(=O)c1c(OCC(C)C)cc(=O)n2c1CCCCC2`: 638 s; `CCN1CCN(Cc2nc(-c3ccc(N4CCSCC4)nc3)no2)CC1`: 604 s. Turning to `CCOC(=O)C1=C(C)NC2=C(C(=O)c3ccccc32)C1c1ccc(OC)c(OC)c1` (centres undefined), the RP-LC retention time was 902 s. Next, `COC(=O)C1=CN(c2ccc(Cl)cc2)c2ccc(F)cc2S1(=O)=O`: 894 s; `CCC(=O)N1CCC(Oc2nccnc2N(C)C)C1` (centres undefined): 616 s; `Cc1nnc(-c2cccc(Cl)c2)nc1NC(C)C`: 717 s. As to `CCOc1nccnc1NC1CCN(C(=O)c2ccc(C)s2)CC1`, the RP-LC retention time was determined as 726 s.

Compound `O=C(Nc1ccc(F)cc1F)N1CCC(OC2CCN(Cc3ccccc3)CC2)CC1` displayed an RP-LC retention time of 656 s. `O=C(Cn1nc2c(SC3CCCCC3)nccn2c1=O)N1CCN(c2ccc(F)cc2)CC1` came in with an RP-LC retention time of 1080 s. `NS(=O)(=O)c1ccc(CCNCc2ccc(-c3cc(Cl)cc(Cl)c3)o2)cc1` yielded an RP-LC retention time of 800 s. For `CC1(C)CC(=O)c2cn(-c3ccc(F)cc3)c(=O)c(C(=O)N3CCN(c4ccccn4)CC3)c2C1`, the RP-LC retention time came to 636 s. Next, `CCC(C)NC(=O)c1cc(COc2ccc(NC(=O)C(C)(C)C)cc2)on1` (centres undefined): 900 s; `Cn1c(=O)n(CCN2CCOCC2)c(=O)c2c1nc1n2CCCN1c1ccc(Cl)cc1`: 643 s; `CCCN1C(=O)COc2ccc(-c3csc(NC(=O)C4CC4)n3)cc21`: 879 s.

Consider `O=C(Cn1cc(-c2ccccc2)c2ncn(C3CC3)c(=O)c21)NCc1ccco1`, for which the RP-LC retention time was 799 s. `Cc1oc2ncn(CC(=O)N3CCN(c4ccccn4)CC3)c(=O)c2c1C` gave an RP-LC retention time of 565 s.

In the case of `CCN1CCN(CCCNC(=O)CN2CCSc3ccccc32)CC1`, the RP-LC retention time amounted to 580 s. `CCOC(=O)c1sc(NC(=O)CN2CCN(c3ccccn3)CC2)nc1C` displayed an RP-LC retention time of 605 s. Take `COc1cccc(C(=O)N(CN2CCCC2=O)c2cccc(C(F)(F)F)c2)c1`: the RP-LC retention time amounted to 757 s. `N#Cc1ccc(Cl)cc1NC(=O)c1cccn(Cc2cccc(C(F)(F)F)c2)c1=O` gave an RP-LC retention time of 1090 s. `COC(=O)c1ccc(CSc2nccc3c(OC)cccc23)o1` yielded an RP-LC retention time of 1100 s. With `COc1ccc(Cl)cc1NC(=O)C1CC(=O)N(c2cccc(NC(C)=O)c2)C1` (centres undefined), the RP-LC retention time was found to be 740 s.

`O=C1COc2ccc(S(=O)(=O)N3CCC(C(=O)Nc4ccc(C(F)(F)F)cc4)CC3)cc2N1` gave an RP-LC retention time of 803 s. In the case of `O=S(=O)(c1ccc(F)cc1)N1CCC(Cc2nncn2-c2ccccc2)CC1`, the RP-LC retention time amounted to 787 s. In turn, `O=C(CS(=O)Cc1cnn(-c2ccccc2)c1-n1cccc1)NCCc1ccc(Cl)cc1` (centres undefined) yielded an RP-LC retention time of 892 s. `Cc1cc(C)c(CNC(=O)c2nnc(-c3ccc(S(=O)(=O)N(C)C)cc3)o2)c(C)c1` gave an RP-LC retention time of 1010 s. Regarding `COC(=O)C(Cc1ccccc1)NC(=O)Nc1c(-c2ccc(C)cc2)nc2ccccn12` (centres undefined), the RP-LC retention time came to 686 s.

As to `O=C(CN1CC=C(c2cnn(-c3ccccc3)c2)CC1)N1CCN(c2ccccc2F)CC1`, the RP-LC retention time worked out at 732 s. For `Cc1cccc(CNC(=O)C2CCCN(S(=O)(=O)c3cn(C(C)C)cn3)C2)c1` (centres undefined) the value was 781 s; for `O=S(=O)(NCC(O)(c1ccccc1)C(F)(F)F)c1ccc(F)c(Cl)c1` (centres undefined), 922 s. Take `O=C1CCCC(=O)N1CCS(=O)(=O)NCC1(c2ccccc2)CCOCC1`: the RP-LC retention time worked out at 678 s. With `COc1ccccc1CNC(=O)C1CCCN1S(=O)(=O)c1cc2c(cc1C)NC(=O)CO2` (centres undefined), the RP-LC retention time is 764 s. `Cc1ccc(-c2coc(-c3ccc(NC(=O)Cc4cccs4)cc3)n2)c(C)c1` came in with an RP-LC retention time of 1330 s. Regarding `Cc1cc(N2CCOCC2)nc(N2CCN(C(=O)c3ccc(C)c(C)c3)CC2)n1`, the RP-LC retention time is 646 s. Take `CCOc1ccc(CNCCSc2nnnn2C)cc1Cl`: the RP-LC retention time was 618 s. Next, `CC(C)n1c(=O)c(Nc2cccc(C(F)(F)F)c2)nc2ccncc21`: 772 s; `COc1ccc(-c2noc(C3CC(=O)N(c4cc(C)ccc4C)C3)n2)cc1` (centres undefined): 988 s.

Regarding `CCOc1ccc2nc(NC(=O)C3CCN(S(=O)(=O)c4cn(C)c(C)n4)CC3)sc2c1`, the RP-LC retention time worked out at 772 s. `COc1ccc(Cl)cc1NC(=O)N1CCc2c(c(COc3ccccc3)nn2C)C1` yielded an RP-LC retention time of 988 s.
